Patent publication US7994334B2, “Fungicide pyridinyloxy substituted phenylamidine derivatives” (Bayer Cropscience AG, priority 2005, dated 2011)

Test: logP by HPLC on reversed-phase column (C 18), EEC Directive 79/831 Annex V.A8
Format: physicochemical
Settings: for log P (pH 2.3): pH 2.3, C 18; for logPa: C 18, 40° C., 0.1% aqueous formic acid and acetonitrile
Protocol: Temperature: 40° C.; Mobile phases: 0.1% aqueous formic acid and acetonitrile; linear gradient from 10% acetonitrile to 90% acetonitrile.

log P (pH 2.3)	logPa	SMILES
	2.66	CCN(C)C=Nc1cc(C)c(Oc2cccc(-c3ccc(Cl)cc3)n2)cc1C [Example 45]
	1.81	Cc1cc(Oc2cccc(Cl)n2)c(C)cc1N=CN1CCCC1 [Example 46]
	1.96	Cc1cc(Oc2cccc(Cl)n2)c(C)cc1N=CN1CCCCC1 [Example 47]
	1.98	CCc1cc(Cl)cc(Oc2cc(C)c(N=CN(C)CC)cc2C)n1 [Example 48]
	2.01	CCN(C)C=Nc1cc(C)c(Oc2ccc(C)c(Cl)n2)cc1C [Example 49]
	2.21	Cc1cc(Oc2ccc(C)c(Cl)n2)c(C)cc1N=CN1CCCCC1 [Example 50]
	2.17	CCCN(C)C=Nc1cc(C)c(Oc2ccc(C)c(Cl)n2)cc1C [Example 51]
	2.05	Cc1cc(Oc2ccc(C)c(Cl)n2)c(C)cc1N=CN1CCCC1 [Example 52]
	2.34	Cc1cc(Oc2cc(Cl)cc(C(C)C)n2)c(C)cc1N=CN1CCCCC1 [Example 53]
	2.35	CCCN(C)C=Nc1cc(C)c(Oc2cc(Cl)cc(C(C)C)n2)cc1C [Example 54]
	2.22	Cc1cc(Oc2cc(Cl)cc(C(C)C)n2)c(C)cc1N=CN1CCCC1 [Example 55]
	1.75	CCN(C)C=Nc1cc(C)c(Oc2cc(Cl)ccn2)cc1C [Example 56]
	1.89	CCN(C)C=Nc1cc(C)c(Oc2cccc(Br)n2)cc1C [Example 57]
	2.04	CCCN(C)C=Nc1cc(C)c(Oc2cccc(Br)n2)cc1C [Example 58]
	2.06	Cc1cc(Oc2cccc(Br)n2)c(C)cc1N=CN1CCCCC1 [Example 59]
	1.90	Cc1cc(Oc2cccc(Br)n2)c(C)cc1N=CN1CCCC1 [Example 60]
	1.98	CCN(C)C=Nc1cc(C)c(Oc2cccc(C(F)(F)F)n2)cc1C [Example 61]
	2.31	CCN(C)C=Nc1cc(C)c(Oc2cc(C(F)(F)F)c(F)c(F)n2)cc1C [Example 62]
	2.48	CCCN(C)C=Nc1cc(C)c(Oc2cc(C(F)(F)F)c(F)c(F)n2)cc1C [Example 63]

log P (pH 2.3)	logPa	SMILES
1.70		CCN(C)C=Nc1cc(C)c(Oc2cncc(Cl)c2)cc1C [Example 64, N-Ethyl-N-methyl-N′-[4-(3-chlorpyridyl-5-oxy)-2,5-xylyl]formamidine]
	0.60	CCN(C)C=Nc1cc(C)c(Oc2ccc(C)nc2)cc1C [Example 65]
	1.56	CCN(C)C=Nc1cc(C)c(Oc2cccnc2C)cc1C [Example 66]
	1.82	CCN(C)C=Nc1cc(C)c(Oc2cncc(Cl)c2)cc1C [Example 67]
1.47		CCc1nccc(Oc2cc(C)c(N=CN(C)CC)cc2C)c1Cl [Example 68, N-Ethyl-N-methyl-N′-[4-(2-ethyl-3-chloropyridyl-4-oxy)-2,5-xylyl]form-amidine]
	1.45	CCN(C)C=Nc1cc(C)c(Oc2ccnc(Cl)c2)cc1C [Example 69]
	1.66	Cc1cc(Oc2ccnc(Cl)c2)c(C)cc1N=CN1CCCCC1 [Example 70]
	1.52	Cc1cc(Oc2ccnc(Cl)c2)c(C)cc1N=CN1CCCC1 [Example 71]
	1.56	CCCN(C)C=Nc1cc(C)c(Oc2ccnc(Cl)c2)cc1C [Example 72]
	1.51	C=CCN(C)C=Nc1cc(C)c(Oc2ccnc(CC)c2Cl)cc1C [Example 73]
	1.59	CCCN(C)C=Nc1cc(C)c(Oc2ccnc(CC)c2Cl)cc1C [Example 74]
	1.56	CCc1nccc(Oc2cc(C)c(N=CN3CCCCC3)cc2C)c1Cl [Example 75]
	1.43	CCc1nccc(Oc2cc(C)c(N=CN3CCCC3)cc2C)c1Cl [Example 76]
	1.75	CCN(C)C=Nc1cc(C)c(Oc2ccnc(C(F)(F)F)c2)cc1C [Example 77]
	1.75	CCCN(C)C=Nc1cc(C)c(Oc2ccnc(C(F)(F)F)c2)cc1C [Example 78]
	1.78	Cc1cc(Oc2ccnc(C(F)(F)F)c2)c(C)cc1N=CN1CCCCC1 [Example 79]
	1.69	Cc1cc(Oc2ccnc(C(F)(F)F)c2)c(C)cc1N=CN1CCCC1 [Example 80]
	1.74	C=CCN(C)C=Nc1cc(C)c(Oc2ccnc(Cl)c2)cc1C [Example 81]

Second part, the molecule before the results:

SMILES	log P (pH 2.3)	logPa
CCc1nccc(Oc2cc(C)c(N)cc2C)c1Cl [4-(2-Ethyl-3-chloropyridyl-4-oxy)-2,5-xylidine]	1.66	
Cc1cc([N+](=O)[O-])c(C)cc1Oc1cncc(Cl)c1 [4-(3-chlorpyridyl-5-oxy)-2,5-dimethylnitrobenzene]	3.61	
Cc1cc(Oc2cncc(Cl)c2)c(C)cc1N [4-(3-chlorpyridyl-5-oxy)-2,5-xylidine]	1.83	
CCN(C)C=Nc1cc(C)c(Oc2cc(C(F)(F)F)cc(Cl)n2)cc1C [Example 1, N-Ethyl-N-methyl-N′-[4-(2-chlor-4-trifluormethylpyridyl-6-oxy)-2,5-xylyl]form-amidine]	2.39	
CCN(C)C=Nc1ccc(Oc2ncc(C(F)(F)F)cc2Cl)cc1C [Example 2]		2.21
CCN(C)C=Nc1ccc(Oc2cc(Cl)ccn2)cc1C [Example 3]		1.50
CCN(C)C=Nc1ccc(Oc2cc(C(F)(F)F)cc(Cl)n2)cc1C [Example 4]		2.20
CCN(C)C=Nc1ccc(Oc2ccc(Cl)cn2)cc1C [Example 5]		1.58
CCN(C)C=Nc1cc(C)c(Oc2ccc(C(F)(F)F)c(Cl)n2)cc1C [Example 6]		2.36
Cc1cc(Oc2cc(C(F)(F)F)cc(Cl)n2)ccc1N=CN(C)C(C)C [Example 7]		2.22
CCN(C)C=Nc1cc(C)c(Oc2ccc(Cl)cn2)cc1C [Example 8]		1.84
CCN(C)C=Nc1ccc(Oc2ccc(C(F)(F)F)cn2)cc1C [Example 9]		1.79
CCN(C)C=Nc1cc(C)c(Oc2ccc(C(F)(F)F)cn2)cc1C [Example 10]		1.86
CCN(C)C=Nc1cc(C)c(Oc2ccc(C(F)(F)F)c(Cl)n2)cc1C [Example 11]		2.11
Cc1cc(Oc2cc(C(F)(F)F)cc(Cl)n2)c(C)cc1N=CN(C)C(C)C [Example 12]		2.52
Cc1cc(Oc2ccc(C(F)(F)F)c(Cl)n2)c(C)cc1N=CN(C)C(C)C [Example 13]		2.51
CCN(C)C=Nc1cc(C)c(Oc2ccc(I)cn2)cc1C [Example 14]		2.10
CCN(C)C=Nc1cc(C)c(Oc2cc(-c3ccccc3Cl)c(C)cn2)cc1C [Example 15]		2.58
CCN(C)C=Nc1ccc(Oc2cc(-c3ccccc3Cl)c(C)cn2)cc1C [Example 16]		2.39
CCN(C)C=Nc1ccc(Oc2ccc(I)cn2)cc1C [Example 17]		1.87
CCN(C=Nc1cc(C)c(Oc2cc(C(F)(F)F)cc(Cl)n2)cc1C)CC [Example 18]		2.59
CCCN(C)C=Nc1cc(C)c(Oc2cc(C(F)(F)F)cc(Cl)n2)cc1C [Example 19]		2.66
Cc1cc(Oc2cc(C(F)(F)F)cc(Cl)n2)c(C(C)(C)C)cc1N=CN(C)C(C)C [Example 20]		3.17
Cc1cc(Oc2cc(C(F)(F)F)cc(Cl)n2)c(C(C)C)cc1N=CN(C)C(C)C [Example 21]		2.97

SMILES	log P (pH 2.3)	logPa
CCN(C)C=Nc1cc(C(C)(C)C)c(Oc2cc(C(F)(F)F)cc(Cl)n2)cc1C [Example 22]		2.83
CCN(C)C=Nc1cc(C)c(Oc2cc(Cl)cc(C)n2)cc1C [Example 23]		1.58
CCN(C)C=Nc1cc(C(C)C)c(Oc2cc(C(F)(F)F)cc(Cl)n2)cc1C [Example 24]		2.87
CCN(C)C=Nc1cc(C)c(Oc2cc(C(F)(F)F)cc(C)n2)cc1C [Example 25]		2.19
CCN(C)C=Nc1cc(C)c(Oc2cccc(Cl)n2)cc1C [Example 26]		1.78
CCN(C)C=Nc1cc(C)c(Oc2cc(C(F)(F)F)ccn2)cc1C [Example 27]		1.96
CCN(C)C=Nc1cc(C)c(Oc2ncc(Cl)cc2Cl)cc1C [Example 28]		2.00
CCCN(C)C=Nc1cc(C)c(Oc2ncc(Cl)cc2Cl)cc1C [Example 29]		2.22
CCCc1cc(CCC)nc(Oc2cc(C)c(N=CN(C)CC)cc2C)c1 [Example 30]		2.97
CCN(C)C=Nc1cc(C)c(Oc2cc(C#N)ccn2)cc1C [Example 31]		1.42
Cc1cc(Oc2ncc(Cl)cc2Cl)c(C)cc1N=CN(C)C(C)C [Example 32]		2.24
CCN(C)C=Nc1cc(C)c(Oc2cc(Cl)cc(C(C)C)n2)cc1C [Example 33]		2.18
Cc1cc(Oc2cc(Cl)cc(C(C)C)n2)c(C)cc1N=CN(C)C(C)C [Example 34]		2.34
CCN(C)C=Nc1cc(C)c(Oc2ccc(C#N)cn2)cc1C [Example 35]		1.47
CCCN(C)C=Nc1cc(C)c(Oc2ccc(C#N)cn2)cc1C [Example 36]		1.63
C=CCN(C)C=Nc1cc(C)c(Oc2ccc(C#N)cn2)cc1C [Example 37]		1.56
Cc1cc(Oc2ccc(C#N)cn2)c(C)cc1N=CN1CCCCC1 [Example 38]		1.58
Cc1cc(Oc2ccc(C#N)cn2)c(C)cc1N=CN1CCCC1 [Example 39]		1.46
CCc1cc(Cl)cc(Oc2cc(C)c(N=CN3CCCCC3)cc2C)n1 [Example 40]		2.04
CCc1cc(Cl)cc(Oc2cc(C)c(N=CN3CCCC3)cc2C)n1 [Example 41]		1.95
CCCN(C)C=Nc1cc(C)c(Oc2cc(Cl)cc(CC)n2)cc1C [Example 42]		2.00
Cc1cc(Oc2ncc(C(F)(F)F)cc2Cl)c(C)cc1N=CN(C)C(C)C [Example 43]		2.29
CCN(C)C=Nc1cc(C)c(Oc2ncc(C(F)(F)F)cc2Cl)cc1C [Example 44]		2.15
